Laboratory results taken from publication PMC5306265 (Investigational New Drugs, 2016).
Where two headings read alike, the source gives them in different places.

Legend:
[1] = Plasma pharmacokinetics in patients (LC-MS/MS, noncompartmental analysis); assay type: in vivo, human; conditions: for half-life / AUC / Cmax / Tmax: human, plasma; for AUC / Cmax / Tmax: po; for AUC: read-out: AUC(0-τ) Geometric mean (%CV); for Cmax: read-out: Cmax Geometric mean (%CV)
Source text: (§1) Quality controls, analyzed in duplicate over the validation range, and inter-assay precision, evaluated at each level in duplicate in six runs, met the performance and acceptance criteria. Noncompartmental analyses, using WinNonlin version 6.1 or higher (Pharsight, Cary, NC), in pharmacokinetic-evaluable patients were used to determine plasma and urine pharmacokinetic parameters including: Cmax, maximum plasma concentration; Tmax, time to Cmax; AUC0–τ, area under the plasma concentration–time curve over the dosing interval; CL/F, apparent clearance; t½, terminal elimination half-life; accumulation ratio; peak/trough ratio; and renal clearance.

[2] = Urine pharmacokinetics in patients (renal clearance); assay type: in vivo; conditions: human, oral, 16 patients, 0.2–22 mg dose range, day 21 of cycle 1
Source text: as §1

[3] = system: BRAF V600E-mutant cutaneous melanoma cell lines; conditions: high proportion of BRAF V600E-mutant cutaneous melanoma cell lines; read-out: IC50 (high sensitivity); cited from earlier work
xenograft model = conditions: single-agent TAK-733, cited from earlier work
[4] = once-daily oral dosing, mouse xenograft models; cited from earlier work

Which results are given for `Cn1c(=O)c(F)c(Nc2ccc(I)cc2F)c2c(=O)n(C[C@@H](O)CO)cnc21` [TAK-733]?
CLss/F Geometric mean (%CV) ([1]; 3.2 mg oral, day 21): 3.0 (102) L/h; Rac Mean (SD) ([1]; 3.2 mg oral, day 21): 7.2 (1.5); CLss/F Geometric mean (%CV) ([1]; 4.4 mg oral, day 21): 13.8 (29) L/h; CLss/F Geometric mean (%CV) ([1]; 6 mg oral, day 21): 6.5 (18) L/h; Rac Mean (SD) ([1]; 6 mg oral, day 21): 2.8 (1.2); CLss/F Geometric mean (%CV) ([1]; 8.4 mg oral, day 21): 10.7 (17) L/h; Rac Mean (SD) ([1]; 8.4 mg oral, day 21): 2.5 (1.0); CLss/F Geometric mean (%CV) ([1]; 16 mg oral, day 21): 7.4 (28) L/h; Rac Mean (SD) ([1]; 16 mg oral, day 21): 4.4 (2.6); CLss/F Geometric mean (%CV) ([1]; 22 mg oral, day 21): 15.7 (36) L/h; Rac Mean (SD) ([1]; 22 mg oral, day 21): 1.8 (1.2); half-life ([1]; oral, 11.8–22 mg dose range, read-out: Terminal half-life following multiple dosing): 29 to 50 h; AUC ([1]; 3.2 mg, 3.2 mg oral, day 1): 0.129 µg·h/mL; Cmax ([1]; 3.2 mg, 3.2 mg oral, day 1): 0.0148 µg/mL; Tmax ([1]; 3.2 mg, 3.2 mg oral, day 1, read-out: Tmax Median (range)): 1.55 h; AUC ([1]; 3.2 mg, 3.2 mg oral, day 21): 1.05 µg·h/mL; Cmax ([1]; 3.2 mg, 3.2 mg oral, day 21): 0.063 µg/mL; Tmax ([1]; 3.2 mg, 3.2 mg oral, day 21, read-out: Tmax Median (range)): 3 h; AUC ([1]; 4.4 mg, 4.4 mg oral, day 1): 0.0981 µg·h/mL; Cmax ([1]; 4.4 mg, 4.4 mg oral, day 1): 0.011 µg/mL; Tmax ([1]; 4.4 mg, 4.4 mg oral, day 1, read-out: Tmax Median (range)): 3.5 h; AUC ([1]; 4.4 mg, 4.4 mg oral, day 21): 0.318 µg·h/mL; Cmax ([1]; 4.4 mg, 4.4 mg oral, day 21): 0.0248 µg/mL; Tmax ([1]; 4.4 mg, 4.4 mg oral, day 21, read-out: Tmax Median (range)): 1.95 h; AUC ([1]; 6 mg, 6 mg oral, day 1): 0.331 µg·h/mL; Cmax ([1]; 6 mg, 6 mg oral, day 1): 0.0262 µg/mL; Tmax ([1]; 6 mg, 6 mg oral, day 1, read-out: Tmax Median (range)): 4.5 h; AUC ([1]; 6 mg, 6 mg oral, day 21): 0.925 µg·h/mL; Cmax ([1]; 6 mg, 6 mg oral, day 21): 0.0597 µg/mL; Tmax ([1]; 6 mg, 6 mg oral, day 21, read-out: Tmax Median (range)): 3 h; AUC ([1]; 8.4 mg, 8.4 mg oral, day 1): 0.36 µg·h/mL; Cmax ([1]; 8.4 mg, 8.4 mg oral, day 1): 0.0284 µg/mL; Tmax ([1]; 8.4 mg, 8.4 mg oral, day 1, read-out: Tmax Median (range)): 3 h; AUC ([1]; 8.4 mg, 8.4 mg oral, day 21): 0.786 µg·h/mL; Cmax ([1]; 8.4 mg, 8.4 mg oral, day 21): 0.0574 µg/mL; Tmax ([1]; 8.4 mg, 8.4 mg oral, day 21, read-out: Tmax Median (range)): 3 h; AUC ([1]; 11.8 mg, 11.8 mg oral, day 1): 0.299 µg·h/mL; Cmax ([1]; 11.8 mg, 11.8 mg oral, day 1): 0.023 µg/mL; Tmax ([1]; 11.8 mg, 11.8 mg oral, day 1, read-out: Tmax Median (range)): 3.05 h; Cmax ([1]; 11.8 mg, 11.8 mg oral, day 21): 0.0532 µg/mL; Tmax ([1]; 11.8 mg, 11.8 mg oral, day 21, read-out: Tmax Median (range)): 4 h; AUC ([1]; 16 mg, 16 mg oral, day 1): 0.64 µg·h/mL; Cmax ([1]; 16 mg, 16 mg oral, day 1): 0.0557 µg/mL; Tmax ([1]; 16 mg, 16 mg oral, day 1, read-out: Tmax Median (range)): 2.1 h; AUC ([1]; 16 mg, 16 mg oral, day 21): 2.15 µg·h/mL; Cmax ([1]; 16 mg, 16 mg oral, day 21): 0.151 µg/mL; Tmax ([1]; 16 mg, 16 mg oral, day 21, read-out: Tmax Median (range)): 3.4 h; AUC ([1]; 22 mg, 22 mg oral, day 1): 0.766 µg·h/mL; Cmax ([1]; 22 mg, 22 mg oral, day 1): 0.06 µg/mL; Tmax ([1]; 22 mg, 22 mg oral, day 1, read-out: Tmax Median (range)): 3 h; AUC ([1]; 22 mg, 22 mg oral, day 21): 1.39 µg·h/mL; Cmax ([1]; 22 mg, 22 mg oral, day 21): 0.105 µg/mL; Tmax ([1]; 22 mg, 22 mg oral, day 21, read-out: Tmax Median (range)): 1.05 h; Tmax ([1]; 0.2–22 mg, overall, read-out: Tmax range): 0.5 to 8.1 h; Tmax ([1]; 0.2–22 mg, read-out: overall median Tmax): 3 h; half-life ([1]; 11.8 mg oral, day 21, read-out: Terminal t½ Mean (SD) (converted)): 43 h; half-life ([1]; 16 mg oral, day 21, read-out: Terminal t½ Mean (SD) (converted)): 39.9 h; half-life ([1]; 22 mg oral, day 21, read-out: Terminal t½ Mean (SD) (converted)): 38.3 h; CL renal [2]: 0.833 to 8.17 mL/min; On-study death (N = 51): 5 (10) n (%); Rash pustular (drug-related grade ≥ 3 AE, N = 51): 1 (2) n (%); on-study deaths related to TAK-733 (five on-study deaths): None of the deaths were considered related to TAK-733; AE resulting in study drug discontinuation (human, in vivo): 7 (14) n (%); AST increased (human, in vivo): 7 (14) n (%); Any drug-related AE (human, in vivo): 45 (88) n (%); Decreased appetite (human, in vivo): 10 (20) n (%); Dry skin (human, in vivo): 5 (10) n (%); Hypophosphatemia (human, in vivo): 1 (2) n (%); Increased AST (human, in vivo): 13 (25) n (%); Increased CPK (human, in vivo): 10 (20) n (%); Neuropathy peripheral (human, in vivo): 1 (2) n (%); Pain in extremity (human, in vivo): 1 (2) n (%); Pulmonary embolism (human, in vivo): 1 (2) n (%); SAE: anemia (human, in vivo): 2 n; SAE: progression of metastatic melanoma (human, in vivo): 3 n; SAE: pulmonary embolism (human, in vivo): 2 n; abnormal sensation in eye (human, in vivo): 1 n; blurred vision (human, in vivo): 2 n; patients with any rash AEs (human, in vivo): 34 (67 %) patients (%); patients with erythematous rash (human, in vivo): 1 (2 %) patients (%); patients with exfoliative rash (human, in vivo): 1 (2 %) patients (%); patients with macular rash (human, in vivo): 2 (4 %) patients (%); patients with maculo-papular rash (human, in vivo): 2 (4 %) patients (%); patients with ophthalmic AEs (eye disorders system organ class) (human, in vivo): 7 (14 %) patients (%); patients with papular rash (human, in vivo): 2 (4 %) patients (%); patients with pruritic rash (human, in vivo): 1 (2 %) patients (%); patients with rash (human, in vivo): 3 (6 %) patients (%); periorbital edema (human, in vivo): 1 n; photophobia (human, in vivo): 1 n; photopsia (human, in vivo): 2 n; retinal edema (human, in vivo): 1 n; visual impairment (human, in vivo): 3 n; cutaneous squamous cell carcinomas (in vivo): No cutaneous squamous cell carcinomas were seen; retinopathies (in vivo): absence of retinopathies; patients with pustular rash (overall, N = 51): 1 (2 %) patients (%); IC50 [3]: < 0.1 µM; exposures associated with stasis in the most sensitive xenograft model (xenograft model): 861 to 1065 ng·h/mL; time-averaged inhibition of ERK phosphorylation associated with tumor stasis (xenograft model; xenograft models): 76–89%; time after dosing at which plasma concentrations decrease rapidly [4]: 8 to 16 h
